Legend:
primary HIV-1 isolates = details: isolates P-31, P-41-0, P41-28 and P-51; IsnoR5 clone 2 cells; 1 μg/ml AMD 3100
Description: Virus-containing supernatants, normalized to 5 ng/ml HIV-1 Gag p24, were titrated in the IsnoR5 clones in the absence and presence of 1 μg/ml AMD 3100. After 14 days, cell free supernatants tested for viral Gag protein by p24 antigen capture assay. The number of positive wells was used to determine the TCID50 of the original sample.
Virus isolation was performed as previously described (Holtkamp et al., 2000) except that viral replication was detected using an antigen capture enzyme-linked immunosorbent assay (ELISA) for the HIV-1 Gag p24 core protein. Inactivated supernatants (0.2% Tween 20) were titrated on ELISA plates coated with the Gag-specific monoclonal antibody Ag3.0 (hybridoma kindly provided by Jon Allan, Southwest Foundation, San Antonio, Tex., USA). […] Captured protein was detected using pooled sera from HIV-1 positive individuals followed by a goat antihuman immunoglobulin G-peroxidase conjugate (Sigma-Aldrich, Taufkirchen, Germany). Virus levels were calculated by comparison with a standard HIV-1 supernatant of known p24 Gag concentration.
Virus-containing supernatants were serially diluted in media and aliquoted (50 μl per well, six replicates per dilution) into U-well microtiter plates containing 2×10^5 of IsnoR5 clones 1 or 2 or 4.5×10^5 PBMC from healthy blood donors in 150 μl medium. […]

[1] = test system: dualtropic viruses that use CCR5 and CXCR4; details: human PBMC; cited from earlier work
[2] = test system: CXCR4-tropic virus strains; details: cited from earlier work

Q: What does the source list for c1cc(CN2CCCNCCNCCCNCC2)ccc1CN1CCCNCCNCCCNCC1 [AMD 3100]?
A: Replication of isolates in the presence of AMD 3100 (FIG. 5) (primary HIV-1 isolates): all were inhibited from replication; Block of dualtropic viruses [1]: efficiently block; Infection of cells by CXCR4-tropic virus strains [2]: preventing infection
